Square brackets hold non-standard residues; d marks the D form. Peptide text beside a SMILES is read from it. * marks the point of attachment. 4Abz = Nc1ccc(C(=O)O)cc1; NHBn = c1ccc(CN*)cc1
Molecular target: RAC-alpha serine/threonine-protein kinase (Homo sapiens, UniProt P31749)
Experiment: AKT IMAP Fluorescence Polarization Assay
Settings: pH 7.2; 23 °C
Text: A bead-based FP assay methodology, termed IMAP, has been developed for the serine/threonine kinase, AKT that allows for direct measurement of product formation. The assay design utilizes a fluoresceinated peptide substrate that, when phosphorylated by the kinase, binds to nanoparticles derivatized with trivalent metal cations through a metal-phospholigand interaction. The result of this bound fluoresceinated phosphorylated product is an increase in polarization signal caused by a decrease in the molecular mobility of the bound product. Reported values are an average of three independent binding curves utilizing an IMAP Akt Assay Kit (Molecular Devices). Reactions were conducted in wells with fluoresceinated peptide, ATP, and Akt1, and inhibitor in reaction buffer. The reactions were equilibrated for 1 h at room temperature then data points were collected and analyzed.

RAC-alpha serine/threonine-protein kinase, sequence (P31749 whole entry): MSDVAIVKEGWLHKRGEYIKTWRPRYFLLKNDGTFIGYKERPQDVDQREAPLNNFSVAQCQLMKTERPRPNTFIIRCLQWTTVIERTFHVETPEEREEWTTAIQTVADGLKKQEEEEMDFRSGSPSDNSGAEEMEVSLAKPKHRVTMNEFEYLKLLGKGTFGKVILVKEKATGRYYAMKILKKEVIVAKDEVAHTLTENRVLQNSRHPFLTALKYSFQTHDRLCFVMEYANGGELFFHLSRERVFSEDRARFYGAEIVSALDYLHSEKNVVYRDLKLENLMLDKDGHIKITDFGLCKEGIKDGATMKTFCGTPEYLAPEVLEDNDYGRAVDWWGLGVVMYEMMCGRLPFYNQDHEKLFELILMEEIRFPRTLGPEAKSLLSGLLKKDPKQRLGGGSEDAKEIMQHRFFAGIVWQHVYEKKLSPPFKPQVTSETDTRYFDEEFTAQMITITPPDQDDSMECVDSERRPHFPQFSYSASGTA

IC50 [µM]	SMILES
28	CC(=O)NCC(=O)NC(CCCN=C(N)N)C(=O)N1CCCC1C(=O)NC(CCCN=C(N)N)C(=O)Nc1ccc(C(=O)NC(C(=O)NC(Cc2ccccc2)C(=O)NCc2ccccc2)C(C)C)cc1 (configuration not stated) [Peptidomimetic, 2] (Ac-GRPR[4Abz]VF-NHBn; configuration not given here)
119	CC(=O)NC(CCCN=C(N)N)C(=O)Nc1ccc(C(=O)NC(C(=O)NC(Cc2ccccc2)C(=O)NCc2ccccc2)C(C)C)cc1 (configuration not stated) [Peptidomimetic, 9] (Ac-R[4Abz]VF-NHBn; configuration not given here)

— BindingDB's records for doi:10.1016/j.bmc.2008.09.058 (Yale University, 2009)
